Measurements: patent US10653672B2, “Myogenesis promotor, muscle atrophy inhibitor, medical composition and TAZ activator” (National University Corporation Tokyo Medical and Dental …, priority 2014, dated 2020)

Key:
A431 cells = assay: Tumor sphere formation of A431 cells; type: cell-based; settings: Ultra Low Attachment plate, serum-free medium, 10 μM, 10 days, maximum diameter of 30 cell aggregates
Description: (2) Each well of a 96-well plate was pre-coated with 30 μL BD Matrigel (trade name, Becton, Dickinson and Company). A431 cells were suspended in the 2% BD Matrigel at a concentration of 2.1×10^6 cells/mL. This cell solution (140 μL) was added with 0.17 μL of 10 mM IBS008739 stock solution in DMSO or 0.17 μL of DMSO, and used to layer the pre-coated wells, and proliferation in the 3D matrigel was observed (see FIG. 12B). 300 of A431 cells were placed in each well of Ultra Low Attachment 96-well plate, and cultured in a serum-free DMEM-F-12 medium containing 10 ng/mL FGF, 5 μg/mL insulin and 0.1% (w/v) BSA. Formation of tumor spheres was observed under the condition with 10 mM IBS008739 stock solution dissolved in DMSO so that the final concentration was 10 μM, or the condition with DMSO of the same volume (see FIG. 12C). The maximum diameter of 30 cell aggregates of 150 μm or more observed in the 3D matrigel or sphere formation condition) are measured as the size of 3D colony or sphere. The results are shown in Table 10 and FIGS. 12B and 12C. The line in the figure is 200 μm. The line and the error bar indicate the average value and the standard error, and ns refers to not significant.
Observation of the spheres and the 3D matrigel cultivation were performed by the following processes. […]

Balb/c ByJ mice = assay: Recovery of cardiotoxin-induced muscle damage; type: in vivo, mouse; settings: intraperitoneal injection of 100 mM stock on days 2, 4 and 6 after cardiotoxin; day 7
Description: Experiments were conducted with mice according to procedures approved by the Institutional Animal Case and Use Committee (see FIG. 9A to 9F). For the experiments, Balb/c ByJ mice (6 weeks, female) were used. The bar in the figures is 50 μm. The line and the error bar indicate the average value and the standard error, *p<0.05, i.e refers to intramuscular injection, and i.p refers to intraperitoneal injection.
(1) Cardiotoxin was diluted to 10 μM with phosphate buffered saline (PBS). The cardiotoxin solution (100 μl) was added with 0.3 μL of DMSO, or 0.3 μL of 10 mM IBS008738 stock solution in DMSO, respectively, and the solution was injected to the anterior tibial muscles on the right and the left, respectively. Three mice were used for one experiment, and the experiment was performed twice. The mice were sacrificed at day 5. […]
(3) Observation of muscle tissues was performed by fixing the anterior tibial muscle with 4% formalin and embedding the same in paraffin or O.C.T. compound, and staining muscle sections of 5 μm with haematoxylin and eosin. Further, Pax 7 was detected with anti-Pax 7 antibody and visualized with 3,3′-diaminobenzidine. […] The number of the Pax7-positive cells and the number of the centrally nucleated muscle fibers were counted at 6 fields at 20-fold magnification. […]

## Cc1ccc(-n2cnc(/N=C/N3CCOCC3)c2C(=O)c2ccccc2)cc1 [exemplary compound 1]
A431 cells
  Sphere size, average size (μm): 176.63 μm
Balb/c ByJ mice
  number of the Pax7-positive cells compared with DMSO: greater
  number of the centrally nucleated muscle fibers compared with DMSO: greater
